{
  "source": "patent EP4714938A1",
  "about": "“HDAC1/2 SELECTIVE INHIBITOR AND USE THEREOF” (Wigen Biomedicine Technology (Shanghai) Co., Ltd., priority 2023, dated 2024)",
  "experiment": "Pharmacokinetic experiment in mice",
  "assay_type": "in vivo, CD-1 female mice",
  "settings": "mouse, plasma",
  "protocol": "CD-1 female mice aged 7 to 10 weeks were intravenously administered and orally administered at doses of 1 mg/kg and 10 mg/kg, respectively. The mice were fasted for at least 12 h before the administration and given food 4 h after the administration, and they were given ad libitum access to water during the experiment.\nOn the day of the experiment, animals in the intravenous group were given the corresponding compound by single injection via the tail vein at an administration volume of 10 mL/kg; and animals in the oral group were given the corresponding compound by single intragastric injection at an administration volume of 10 mL/kg. The animals were weighed before administration, and the administration volume was calculated according to the body weight. The sample collection time points were 0.083 h, 0.167 h, 0.5 h, 1 h, 2 h, 4 h, 8 h, and 24 h.\nAbout 200 µL of whole blood was collected through the orbital venous plexus at each time point and used to prepare plasma for concentration determination by high-performance liquid chromatography-tandem mass spectrometry (LC-MS/MS). The plasma concentrations were processed using a non-compartmental model of Winnolin pharmacokinetic software, and the pharmacokinetic parameters were calculated using a linear-log trapezoidal method. Table 9. Results of in vivo pharmacokinetic evaluation of compounds of the present disclosure",
  "key": {"[1]": {"settings": "Injection (1 mg/kg), intravenous"}},
  "data": [
    {"smiles": "CS(C)(=O)=Nc1ccc(C(=O)Nc2cc(-c3ccc(F)cc3)ccc2N)cc1", "note": "[Compound 1, N-(4-Amino-4'-fluoro-[1,1'-biphenyl]-3-yl)-4-((dimethyl(oxo)-1^λ-6-sulfaneylidene)amino)benzamide]", "values": [
      {"measurement": "AUC(0-t)", "setting": "[1]", "value": 2280, "unit": "ng·h/mL"},
      {"measurement": "clearance", "setting": "[1]", "value": 7.29, "unit": "mL/min/kg"},
      {"measurement": "half-life", "setting": "[1]", "value": 3.01, "unit": "h"},
      {"measurement": "Vd", "setting": "Injection (1 mg/kg), intravenous, read-out: Vdss", "value": 1.68, "unit": "L/kg"},
      {"measurement": "AUC(0-t)", "setting": "Oral administration (10 mg/kg)", "value": 15400, "unit": "ng·h/mL"},
      {"measurement": "Cmax", "setting": "Oral administration (10 mg/kg)", "value": 1370, "unit": "ng/mL"},
      {"measurement": "Tmax", "setting": "Oral administration (10 mg/kg)", "value": 2, "unit": "h"},
      {"measurement": "bioavailability", "setting": "Oral administration (10 mg/kg)", "value": 67.4, "unit": "%"},
      {"measurement": "half-life", "setting": "Oral administration (10 mg/kg)", "value": 2.73, "unit": "h"}
    ]}
  ]
}
